From PubChem BioAssay (NCI)
Several values for one entry are separate records, joined by “and”; a condition that tells them apart may be missing. Identical values can stand only once.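 Cells were grown in 96-well plates and exposed to each compound for 48 hours at five concentrations; endpoints were interpolated linearly between bracketing concentrations, or set to the highest concentration if not reached. At the GI50, growth is halved. At the TGI there is no net growth.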 Where a SMILES comes first, the peptide text is derived from it. The star is where a group is joined. Boc = CC(C)(C)OC(=O)*

Tested on: SK-MEL-2 melanoma
Assay: growth of human tumour cells (NCI), 48 h

Point of comparison: `COC(=O)C1=C(C(=O)OC)C2=S(SC3=C2CCCC3)S1` (stereo unspecified), TGI 85.6 µM. Against it:
- O=C1CCC(=O)c2c1c(O)c1ccncc1c2O — 3.2-fold lower, 26.4 µM
- C=CCN1CCC23c4c5ccc(O)c4OC2C(=NN=C2CCC4(O)C6Cc7ccc(O)c8c7C4(CCN6CC=C)C2O8)CCC3(O)C1C5 (stereo unspecified) — 2.5-fold lower, 33.8 µM
- CN(C)CCNC(=O)c1cccc2c(Nc3ccc(S(=O)(=O)N=C(N)N)cc3)c3ccccc3nc12 — 2.2-fold lower, 38.5 µM
- O=C(NNc1ccccc1)C(=O)NNc1ccccc1 — higher, > 100 µM
- Nc1c(C(=O)c2ccccc2)cnn1-c1ccc(F)cc1 — not separable, > 25 µM
- CC1(C)CC(=O)CC(=Nc2ccc([N+](=O)[O-])cc2)C1 — higher, > 100 µM
- COC(=O)C(C)NC(=O)C(CCSC)NC(=O)C(Cc1ccccc1)NC(=O)OC(C)(C)C (stereo not drawn) (Boc-Phe-Met-Ala-OMe; configuration not given here) — higher, > 100 µM
- COc1cc2c3c(c1OC)-c1cc4c(cc1CC3(C#N)N(C(=O)c1ccccc1)CC2)OCO4 (stereo unspecified) — higher, > 100 µM
- COC(=O)C1=CN(CC2=CC(=O)C(C)=CC2=O)C=C(C(=O)OC)C1c1cccc(OC)c1 — higher, > 100 µM

Point of comparison: `COC(=O)C1=CN(CC2=CC(=O)C(C)=CC2=O)C=C(C(=O)OC)C1c1cccc(OC)c1`, GI50 24.3 µM. Against it:
- O=C(NNc1ccccc1)C(=O)NNc1ccccc1 — 9.2-fold lower, 2.63 µM
- Nc1c(C(=O)c2ccccc2)cnn1-c1ccc(F)cc1 — higher, > 25 µM
- C/C(=N\NC(=S)N1CCCCCC1)c1ccccn1 — 350-fold lower, 0.0694 µM

In the case of `C/C(=N\NC(=S)N1CCCCCC1)c1ccccn1`, the TGI is reported as 0.569 µM and 1.83 µM.

Tested on: HOP-92 NSCLC
Assay: growth of human tumour cells (NCI), 48 h

Point of comparison: `C/C(=N\NC(=S)N1CCCCCC1)c1ccccn1`, TGI 0.3 µM. Against it:
- Cn1cnnc1Sc1c([N+](=O)[O-])ncn1C — 300-fold higher, 91.2 µM
- C=CCC1(CN(C)C)CC/C(=C\c2ccc(Cl)cc2)C1=O (stereo unspecified) — higher, > 100 µM
- C[Si](C)(C)/C(I)=C/CO — 180-fold higher, 54.5 µM
- CC(=O)N1CCC(=O)/C(=C/c2ccccc2)C1 — higher, > 100 µM
- C[Si](C)(C)/C(Br)=C\CCN1C(=O)CCC1=O — higher, > 100 µM
- Cc1ccc(S(=O)OCc2c(C)c(C)c(COS(=O)c3ccc(C)cc3)c(C)c2C)cc1 (stereo unspecified) — higher, > 100 µM
- CC(C)(C)[Si](C)(C)OC1C(=O)C[C@H]2CCCC[C@@H]12 (stereo partly specified) — higher, > 100 µM
- CCN(CC)CCSc1c2ccccc2nc2c(OC)ccc(OC)c12 — 25-fold higher, 7.57 µM
- CCOC(=O)c1ccc(N=Nc2cc(C(=O)OCC)ccc2O)cc1 — higher, > 100 µM
- [N-]=[N+]=N/C1=C/CCCCC(=O)C1 — higher, > 100 µM
- C=COC(=O)N[C@H]1CCc2cc(OC)c(OC)c(OC)c2-c2ccc(SC)c(=O)cc21 — 76-fold higher, 22.8 µM
- Cc1ccc(NC(=O)CCc2nnc(N)o2)cc1 — higher, > 100 µM
- CCOC(=O)C1SC(=Nc2ccccc2)N=C1C (stereo unspecified) — 300-fold higher, 88.8 µM
- O=C1CCC(=O)c2c1c(O)c1ccncc1c2O — 130-fold higher, 38.1 µM
- C=CCN1CCC23c4c5ccc(O)c4OC2C(=NN=C2CCC4(O)C6Cc7ccc(O)c8c7C4(CCN6CC=C)C2O8)CCC3(O)C1C5 (stereo unspecified) — 130-fold higher, 39.9 µM
- COC(=O)C1=C(C(=O)OC)C2=S(SC3=C2CCCC3)S1 (stereo unspecified) — 130-fold higher, 40.3 µM
- O=C(NNc1ccccc1)C(=O)NNc1ccccc1 — higher, > 100 µM
- Nc1c(C(=O)c2ccccc2)cnn1-c1ccc(F)cc1 — higher, > 25 µM
- COC(=O)C(C)NC(=O)C(CCSC)NC(=O)C(Cc1ccccc1)NC(=O)OC(C)(C)C (stereo not drawn) (Boc-Phe-Met-Ala-OMe; configuration not given here) — higher, > 100 µM
- COc1cc2c3c(c1OC)-c1cc4c(cc1CC3(C#N)N(C(=O)c1ccccc1)CC2)OCO4 (stereo unspecified) — 110-fold higher, 32.5 µM
- COC(=O)C1=CN(CC2=CC(=O)C(C)=CC2=O)C=C(C(=O)OC)C1c1cccc(OC)c1 — 110-fold higher, 33.8 µM

In the case of `COc1ccc2c(c1)c[n+](C)c1c3cc(OC)c(OC)cc3ccc21`, the GI50 is reported as 3.69 µM and 14.6 µM.

For `COc1ccc2c(c1)c[n+](C)c1c3cc(OC)c(OC)cc3ccc21`, the TGI was 9.98 µM and 35.1 µM.
In the case of `CSc1nc(NC2OC(COC(C)=O)C(OC(C)=O)C(OC(C)=O)C2OC(C)=O)c(N=CC=Nc2c(NC3OC(COC(C)=O)C(OC(C)=O)C(OC(C)=O)C3OC(C)=O)nc(SC)n(C)c2=O)c(=O)n1C` (stereo unspecified), the TGI is reported as 50 µM and 64.5 µM.

Point of comparison: `CSc1nc(NC2OC(COC(C)=O)C(OC(C)=O)C(OC(C)=O)C2OC(C)=O)c(N=CC=Nc2c(NC3OC(COC(C)=O)C(OC(C)=O)C(OC(C)=O)C3OC(C)=O)nc(SC)n(C)c2=O)c(=O)n1C` (stereo unspecified), GI50 14.8 µM. Against it:
- O=C(NNc1ccccc1)C(=O)NNc1ccccc1 — higher, > 100 µM
- Nc1c(C(=O)c2ccccc2)cnn1-c1ccc(F)cc1 — higher, > 19.3 µM
- C/C(=N\NC(=S)N1CCCCCC1)c1ccccn1 — 68-fold lower, 0.217 µM
- COC(=O)C1=CN(CC2=CC(=O)C(C)=CC2=O)C=C(C(=O)OC)C1c1cccc(OC)c1 — within 1.5-fold, 10.6 µM

Tested on: NCI-H226 lung
Assay: growth of human tumour cells (NCI), 48 h

Point of comparison: `CN(C)CCNC(=O)c1cccc2c(Nc3ccc(S(=O)(=O)N=C(N)N)cc3)c3ccccc3nc12`, TGI 10.1 µM. Against it:
- Cn1cnnc1Sc1c([N+](=O)[O-])ncn1C — higher, > 100 µM
- C=CCC1(CN(C)C)CC/C(=C\c2ccc(Cl)cc2)C1=O (stereo unspecified) — higher, > 100 µM
- C[Si](C)(C)/C(I)=C/CO — 3.9-fold higher, 39.3 µM
- C[N+](C)(C)CC1CCC/C1=N\OC(=O)c1ccccc1 (stereo unspecified) — higher, > 100 µM
- CC(=O)N1CCC(=O)/C(=C/c2ccccc2)C1 — higher, > 100 µM
- C[Si](C)(C)/C(Br)=C\CCN1C(=O)CCC1=O — higher, > 100 µM
- Cc1ccc(S(=O)OCc2c(C)c(C)c(COS(=O)c3ccc(C)cc3)c(C)c2C)cc1 (stereo unspecified) — higher, > 100 µM
- C[C@]12CCC(=O)C=C1CC[C@@H]1C2CC[C@]2(C)Nc3[nH]ncc3CC12 (stereo partly specified) — higher, > 100 µM
- CCN(CC)CCSc1c2ccccc2nc2c(OC)ccc(OC)c12 — 5-fold higher, 50.7 µM
- C=COC(=O)N[C@H]1CCc2cc(OC)c(OC)c(OC)c2-c2ccc(SC)c(=O)cc21 — 13-fold lower, 0.793 µM
- Cc1ccc(NC(=O)CCc2nnc(N)o2)cc1 — higher, > 100 µM
- CCOC(=O)C1SC(=Nc2ccccc2)N=C1C (stereo unspecified) — higher, > 100 µM
- Nc1ccn(C2OC(CO)C(O)C2O)c(=O)n1 (stereo unspecified) — higher, > 500 µM
- O=C1CCC(=O)c2c1c(O)c1ccncc1c2O — 4.5-fold higher, 45.3 µM
- C=CCN1CCC23c4c5ccc(O)c4OC2C(=NN=C2CCC4(O)C6Cc7ccc(O)c8c7C4(CCN6CC=C)C2O8)CCC3(O)C1C5 (stereo unspecified) — higher, > 100 µM
- O=C(NNc1ccccc1)C(=O)NNc1ccccc1 — higher, > 100 µM
- Nc1c(C(=O)c2ccccc2)cnn1-c1ccc(F)cc1 — higher, > 25 µM
- CC1(C)CC(=O)CC(=Nc2ccc([N+](=O)[O-])cc2)C1 — higher, > 100 µM
- COC(=O)C(C)NC(=O)C(CCSC)NC(=O)C(Cc1ccccc1)NC(=O)OC(C)(C)C (stereo not drawn) (Boc-Phe-Met-Ala-OMe; configuration not given here) — higher, > 100 µM
- COc1cc2c3c(c1OC)-c1cc4c(cc1CC3(C#N)N(C(=O)c1ccccc1)CC2)OCO4 (stereo unspecified) — 7.7-fold higher, 78.2 µM
- COC(=O)C1=CN(CC2=CC(=O)C(C)=CC2=O)C=C(C(=O)OC)C1c1cccc(OC)c1 — 6.2-fold higher, 62.2 µM

With `COc1ccc2c(c1)c[n+](C)c1c3cc(OC)c(OC)cc3ccc21` the GI50 was 4.22 µM and 12.1 µM.

In the case of `COc1ccc2c(c1)c[n+](C)c1c3cc(OC)c(OC)cc3ccc21`, the TGI is reported as 14.8 µM and 25.9 µM.
In the case of `CSc1nc(NC2OC(COC(C)=O)C(OC(C)=O)C(OC(C)=O)C2OC(C)=O)c(N=CC=Nc2c(NC3OC(COC(C)=O)C(OC(C)=O)C(OC(C)=O)C3OC(C)=O)nc(SC)n(C)c2=O)c(=O)n1C` (stereo unspecified), the TGI is reported as > 50 µM and 97.8 µM.
In the case of `C/C(=N\NC(=S)N1CCCCCC1)c1ccccn1`, the TGI is reported as 3.62 µM and 5.35 µM.

Point of comparison: `C/C(=N\NC(=S)N1CCCCCC1)c1ccccn1`, GI50 0.245 µM. Against it:
- Nc1ccn(C2OC(CO)C(O)C2O)c(=O)n1 (stereo unspecified) — 2.6-fold higher, 0.637 µM
- O=C(NNc1ccccc1)C(=O)NNc1ccccc1 — higher, > 100 µM
- Nc1c(C(=O)c2ccccc2)cnn1-c1ccc(F)cc1 — higher, > 25 µM
- COC(=O)C1=CN(CC2=CC(=O)C(C)=CC2=O)C=C(C(=O)OC)C1c1cccc(OC)c1 — 82-fold higher, 20 µM
